Experimental data: patent US5470858A, “Derivatives of (hetero)aromatic ethers and thioethers having antihyperlipidemic activity, process for their preparation and pharmaceutical compositions containing them” (Pierrel SpA, priority 1991, dated 1995)
Where two headings read alike, the source gives them in different places.

Assays:
Format in all cases: in vivo
[1] = system: hyperlipaemic SD male rats; assay: Hypolipemizing activity, 15 days experimental model, modified diet; conditions: rat, oral; for Cholesterol VLDL + LDL (percent variation vs hyperlipaemic controls): by difference between total and HDL; for Hepatic index (percent variation vs hyperlipaemic controls): index = (Liver weight/body weight) × 100
Procedure: (§1) The hypolipemizing activity of the compounds of the present invention has been evaluated in the rat using SD male animals (Charles River) of an initial weight of 150 g, housed in controlled environment at a temperature of 21°±1° C., relative humidity 60% and a 12 hours light/dark cycle.
Experimental models have been used in which the animals are rendered hiperlipaemic by "ad libitum" food administration with a modified Nath diet (Atherosclerosis 30, 1978, pag. 45-46) having the following composition:
In the second model a diet was used which was modified with respect to the former one by the following parameters: […]
The animals were fasted with this diet for 15 days consecutively, during which they received the pharmacological treatment once a day by oral route and were sacrificed 24 hours after the last administration. At the sacrifice time the blood was removed for the lipid determination and the liver was removed as well to be weighed and used for the evaluation of the catalase enzyme as the index of the peroxysomes proliferation and thus of hepatotoxicity.
This experimental model has been used only for the molecules which in the first model were found more promising, and has permitted to get values of the serum lipids from 2 to 3 times higher than the normal values both for the total cholesterol and for the triglycerides.
This experimental model was used to:
a) evaluate the effectiveness on a less marked hyperlipoproteinaemy, and
b) assess mainly at the hepatic level the tolerability of the compounds during a more extended treatment.
(§2) The determination of the triglycerides, of the total cholesterol and of the cholesterol associated to the HDL has been effected by means of a commercial enzymatic kit. The concentration of the cholesterol associated to VLDL+LDL has been determined by difference between total cholesterol and HDL.
On the basis of the indications provided by this screening the most interesting compounds have been evaluated by the 15 days experimental model which permits both the evaluation of the effectiveness in the case of a hyperlipaemia less marked and more constant, and the tolerability control of the compounds during a longer term treatment.
In this case too the results (reported in the following table 2) are expressed as the percent variation with respect to the hyperlipaemic controls to which carboxymethylcellulose as 0.5% in water was administered by oral route at the dose of 10 ml/kg/day. The same vehicle was used for the suspension of the compounds being tested, administered at the doses; of 50 and 100 mg/kg/day by oral route.

catalase enzyme = assay: Hepatic tolerability, 15 days at high dose: catalase enzyme activity in liver (index of peroxysomes proliferation); conditions: rat liver, oral, 15 days, 300 mg/kg/day; absolute values; solvent 539,8
Procedure: (§3) The hypolipemizing activity of the compounds of the present invention has been evaluated in the rat using SD male animals (Charles River) of an initial weight of 150 g, housed in controlled environment at a temperature of 21°±1° C., relative humidity 60% and a 12 hours light/dark cycle. The animals were fasted with this diet for 15 days consecutively, during which they received the pharmacological treatment once a day by oral route and were sacrificed 24 hours after the last administration. At the sacrifice time the blood was removed for the lipid determination and the liver was removed as well to be weighed and used for the evaluation of the catalase enzyme as the index of the peroxysomes proliferation and thus of hepatotoxicity. In order to evaluate the hepatic tolerability of the compounds of interest they have been administered for 15 days at a high dose (300 mg/kg/day) according to the same conditions of the previous experiment.24 hours after the last treatment the animals have been sacrificed, and the liver has been removed and stored at -20° C. up to the time of dosing the activity of the catalase enzyme (Methods of enzymatic analysis, vol.2, pag. 673, 1974 edit. H. U. Bergmeyer, Verlag Chemie International).

[2] = system: hyperlipaemic SD male rats; assay: Hypolipemizing activity, 5 days experimental model, modified Nath diet; conditions: rat, oral; for change in vivo at 100 mg/kg/day / change in vivo at 300 mg/kg/day: 120 h; for Hepatic index (percent variation vs hyperlipaemic controls): index = (Liver weight/body weight) × 100
Procedure: as §1
Experimental models have been used in which the animals are rendered hiperlipaemic by "ad libitum" food administration with a modified Nath diet (Atherosclerosis 30, 1978, pag. 45-46) having the following composition: […]
hydrogenated coconut oil
In the first model the animals have been fed with this diet for 5 consecutive days, during which they received the pharmacological treatment once a day by oral route and were sacrificed 2 hours after the last administration.
At the time of the sacrifice the blood was removed, for the lipid determination, as well as the liver the weight of which was the index of a possible hepatomegaly.
By this experimental model the concentration of the serum lipids attained very high values which, in the control group, was four times the normal values for the total cholesterol and the triglycerides.
as §2
The results obtained in the experimental model of the 5 days duration for some compounds representative of the invention are reported in the following table 1. The data are expressed as percent variation with respect to the hyperlipaemic controls to which carboxymethylcellulose as 0.5% in water at the dose of 10 ml/kg/day by oral route was administered. The same vehicle was used for the suspension of the tested compounds at the doses of 100 and 300 mg/kg/day by oral route.

liver = assay: Hepatic tolerability, 15 days at high dose: hepatic index; conditions: rat, oral, 15 days, 300 mg/kg/day; absolute values; solvent 5,4
Procedure: as §3

[3] = 100 mg/kg/day, by difference between total and HDL, read-out: Cholesterol VLDL + LDL (percent variation vs hyperlipaemic controls)
[4] = 100 mg/kg/day, read-out: Cholesterol HDL (percent variation vs hyperlipaemic controls)
[5] = 100 mg/kg/day, read-out: Total Cholesterol (percent variation vs hyperlipaemic controls)
[6] = 100 mg/kg/day, read-out: Triglycerides (percent variation vs hyperlipaemic controls)
[7] = 300 mg/kg/day, by difference between total and HDL, read-out: Cholesterol VLDL + LDL (percent variation vs hyperlipaemic controls)
[8] = 300 mg/kg/day, read-out: Total Cholesterol (percent variation vs hyperlipaemic controls)
[9] = 300 mg/kg/day, read-out: Triglycerides (percent variation vs hyperlipaemic controls)

Compound	Cholesterol HDL (percent variation vs hyperlipaemic controls) ([1]; 50 mg/kg/day)	Total Cholesterol (percent variation vs hyperlipaemic controls) ([1]; 50 mg/kg/day)	Triglycerides (percent variation vs hyperlipaemic controls) ([1]; 50 mg/kg/day)	Cholesterol VLDL + LDL (percent variation vs hyperlipaemic controls) ([1]; 50 mg/kg/day)	Hepatic index (percent variation vs hyperlipaemic controls) ([1]; 50 mg/kg/day)	Cholesterol HDL (percent variation vs hyperlipaemic controls) ([1]; 100 mg/kg/day)	Total Cholesterol (percent variation vs hyperlipaemic controls) ([1]; 100 mg/kg/day)	Triglycerides (percent variation vs hyperlipaemic controls) ([1]; 100 mg/kg/day)	Cholesterol VLDL + LDL (percent variation vs hyperlipaemic controls) ([1]; 100 mg/kg/day)	Hepatic index (percent variation vs hyperlipaemic controls) ([1]; 100 mg/kg/day)	Catalase enzyme activity (catalase enzyme)	change in vivo at 100 mg/kg/day [2, 3] [%]	change in vivo at 100 mg/kg/day [2, 4] [%]	change in vivo at 100 mg/kg/day [2, 5] [%]	change in vivo at 100 mg/kg/day [2, 6] [%]	change in vivo at 300 mg/kg/day [2, 7] [%]	change in vivo at 300 mg/kg/day [2, 8] [%]	change in vivo at 300 mg/kg/day [2, 9] [%]	Hepatic index (percent variation vs hyperlipaemic controls) ([2]; 300 mg/kg/day)	Hepatic index (Liver weight/body weight) × 100 (liver)	other results
CC(C)COC(=O)c1ccc(OCC(=O)CSc2nc3c(N)ncnc3n2[C@@H]2O[C@H](CO)[C@@H](O)[C@H]2O)cc1 [Example 28]	+11,3%	-23,3%	-27,3%	-28,1%	+0,6%	+21,0%	-35,3%	-35,1%	-41,7%	-1,9%	479,7 umoli/min/mg proteins	-15.1	5.7	-14	-16.3	-33.7	-31.3	-22.5	-5,5%	5,6	change in vivo at 300 mg/kg/day ([2]; 300 mg/kg/day, read-out: Cholesterol HDL (percent variation vs hyperlipaemic controls)): 22.7%
CC(C)COC(=O)c1ccc(OCC(O)CSc2nc3ccccc3s2)cc1 (stereo not drawn) [Example 6, 2-[3-[(p-isobutyloxycarbonyl)-phenoxy]-2-hydroxy-propylthio]-benzothiazole]	+1,0%	-16,1%	-18,2%	-19,0%	-1,7%	+4,3%	-19,0%	-49,1%	-21,7%	-4,1%	504,6 umoli/min/mg proteins	-18.8	7.7	-17	-15.6	-27.9	-24.9	-23.4	+0,4%	5,9	Hepatic index (percent variation vs hyperlipaemic controls) ([2]; 100 mg/kg/day): +2,2%
